Test results reported in patent publication US20140140952A1, “D-Alanine Ester of Sp-Nucleoside Analog” (IDENIX PHARMACEUTICALS, INC., priority 2012, published 2014).

Legend:
HCV genotype 1b replicon = assay: HCV replicon assay (Zluc luciferase reporter); type: cell-based; conditions: Hepatitis C virus, Zluc cells, 72 hours
Method: Huh-7-derived cell line (Zluc) that harbors an HCV genotype 1b replicon and a luciferase reporter gene was grown in Dulbecco's Modified Eagle Medium (DMEM) supplemented with 10% fetal bovine serum, 2 mM GlutaMAX, 1% MEM nonessential amino acids, 100 IU/mL penicillin, 100 μg/mL streptomycin, and 0.5 mg/mL Geneticin® (G418). For dose response testing the cells were seeded in 96-well plates at 7.5×10^3 cells per well in a volume of 50 μL, and incubated at 37° C./5% CO2. Drug solutions were made up freshly in Huh-7 media as 2× stocks. […] were prepared from these stocks in DMEM without G418. At least three hours after Zluc cells were seeded, drug treatment was initiated by adding 50 μL of drug dilutions to the plates in duplicate. Final concentrations of drug ranged from 100 μM to 0.0000512 μM. Cells were then incubated at 37° C./5% CO2. […] For this, media was removed from the plates via gentle tapping. Fifty microliters of ONE-glo luciferase assay reagent was added to each well. The plates were shaken gently for 3 min at room temperature and luminescence was measured on a Victor^3 V 1420 multilabel counter (Perkin Elmer) with a 1 second read time using a 700 nm cut-off filter. The EC50 values were calculated from dose response curves from the resulting best-fit equations determined by Microsoft Excel and XLfit 5.2 software. […]

[1] = Cytotoxicity evaluation, CellTiter-Blue Cell Viability Assay; type: cell-based; conditions: human, Zluc cells (Huh-7-derived cell line), read-out: HCV Replicon CC50
Method: For cytotoxicity evaluation, Zluc cells were treated with compound as described herein, and cell viability was monitored using the CellTiter-Blue Cell Viability Assay (Promega) by adding 20 μL of the assay solution to each well. The plates were then incubated at 37° C./5% CO2 for at least 3 hours. Fluorescence was detected in plates using excitation and emission wavelengths of 531 and 595 nm, respectively, in a Victor^3 V 1420 multilabel counter (Perkin Elmer) and CC50 values were determined using Microsoft Excel and XLfit 5.2 software.

[2] = Stability in human liver microsomes; type: in vitro ADME; conditions: human liver microsomes 1.0 mg/mL, 10 μM, NADPH, 60 min
Method: (§1) Stability of test compounds was determined in subcellular fractions (microsomes and S9) of human liver and intestine in duplicate for each matrix. Pooled liver and intestinal microsomal, intestinal and liver S9 proteins (1.0 mg/mL), suspended in incubation buffer (100 mM potassium phosphate, pH 7.4, 5 mM MgCl2, and 0.1 mM EDTA), were preincubated for 5 min at 37° C. with 10 μM of a test compound from a 10 mM stock solution in DMSO (final DMSO concentration was 0.1%); the reaction was initiated by the addition of NADPH (3 mM final concentration). At specific times (0 and 60 min), 0.1 mL samples were taken and the reaction terminated by the addition of 4 volumes of stop solution (acetonitrile with 500 ng/mL carbutamide as an internal standard). The samples were vortexed for 30 sec and then centrifuged at 16,000 g for 10 min. Aliquots of supernatants (100 μL each) were transferred to 96 deep-well plates preloaded with 100 μL distilled water and analyzed after mixing by LC-MS/MS. The MS peak area ratio of the test compound versus the internal standard was calculated and percent unchanged test compound over 60 minutes was calculated using this ratio.

[3] = Stability in human intestinal microsomes; type: in vitro ADME; conditions: human intestinal microsomes 1.0 mg/mL, 10 μM, NADPH, 60 min
Method: as §1

[4] = Plasma pharmacokinetics following a single oral dose in CD-1 mice; type: in vivo; conditions: CD-1 male mice, single oral dose 10 mg/kg for I or 25 mg/kg for II in PEG 200; plasma 2′-methyl-2′-fluorouridine; 4, 12, 24 hours
Method: Plasma samples were analyzed for 2′-methyl-2′-fluorouridine (2′-Me-2′-F-U) by LC-MS/MS. The internal standard (IS) was D3-2′-F-2′-Me-G. For protein precipitation and extraction, each plasma sample (50 μL) was treated with 500 μL of 0.2% formic acid in acetonitrile and 20 μL of the internal standard working solution. After vortexing and centrifugation, 500 μL of the sample extracts were transferred to a new plate, dried under N2 at ˜28° C. and reconstituted with 75 μL of 0.2% FA in water. The extracts were chromatographed on an Aquasil C18 column using a gradient system of 0.2% formic acid in water and acetonitrile. The analytes were detected and quantified by tandem mass spectrometry in positive ion mode on an MDS Sciex API5000 equipped with a Turbo Ionspray® interface. The calibration range was 0.500 (LLOQ) to 200 ng/mL in mouse plasma.

[5] = Liver pharmacokinetics (triphosphate) following a single oral dose in CD-1 mice; type: in vivo; conditions: CD-1 male mice, single oral dose 10 mg/kg for I or 25 mg/kg for II in PEG 200; liver 2′-methyl-2′-fluorouridine triphosphate; 4, 12, 24 hours
Method: Liver samples were analyzed for the active species 2′-methyl-2′-fluorouridine triphosphate (2′-Me-2′-F-U TP) by LC-MS/MS. […] Internal standard solution was added to the homogenate followed by neutralization with 20% ammonium hydroxide solution and addition of 500 μL 1% formic acid. The tissue samples were extracted by weak anion exchange solid phase extraction (SPE). Post extraction, the eluates were evaporated under nitrogen, followed by reconstitution before injection onto the LC-MS/MS system. […] The calibration range was 10 to 10000 pmol/mL in mouse liver homogenate (50 to 50000 pmol/g of mouse liver).

Compound	EC50 (HCV genotype 1b replicon)	CC50 [1]	Stability (expressed as percent remaining) HLM (1 hr) [2]	Stability (expressed as percent remaining) HIM (1 hr) [3]	Ms Plasma 2′-Me-2′-F-U AUC (pmol · hr/mL at 1 μmol/kg) [4]	Ms Liver 2′-Me-2′-F-U TP AUC (pmol · hr/g at 1 μmol/kg) [5]
CC(C)OC(=O)[C@@H](C)N[P@](=O)(OCC1O[C@@H](n2ccc(=O)[nH]c2=O)[C@](C)(F)[C@@H]1O)Oc1ccccc1 (single isomer, unassigned) [Compound (Ib), D-Alanine, N—((SP,2′R)-2′-deoxy-2′-fluoro-2′-methyl-P-phenyl-5′-uridylyl)-, 1-methylethyl ester]	> 10 µM	> 50 µM	+++++ (80% < +++++)	+++++ (80% < +++++)	++ (100 < ++ ≦ 400)	+++ (400 < +++ ≦ 1000)
CC(C)OC(=O)[C@@H](C)N[P@@](=O)(OCC1O[C@@H](n2ccc(=O)[nH]c2=O)[C@](C)(F)[C@@H]1O)Oc1ccccc1 (single isomer, unassigned) [Compound (Ia)]	> 10 µM	> 50 µM	++++ (60% < ++++ ≦ 80%)	+++++ (80% < +++++)	+++ (400 < +++ ≦ 1000)	+++++ (1600 < +++++)
